Columns and labels:
[1] = Plasma concentration in human at 400 mg administered with fat meal every 12 hrs for 8 days measured on day 1 after 12 hrs of first dose; type: ADME, organism-based
[2] = AUC (0 to 12 hrs) in human at 50 mg administered with fat meal every 12 hrs for 8 days measured on day 8; type: ADME, organism-based; set-up: dose 50 mg, time < 12 hr; conditions: plasma
[3] = AUC (0 to 8 hrs) in human at 200 mg administered with fat meal every 8 hrs for 8 days measured on day 8; type: ADME, organism-based; set-up: time < 8 hr, dose 200 mg; conditions: plasma
[4] = Cmax in human at 100 mg administered with fat meal every 12 hrs for 8 days measured on day 8; type: ADME, organism-based; set-up: dose 100 mg; conditions: in vivo
[5] = Cmax in human at 200 mg administered with fat meal every 12 hrs for 8 days measured on day 8; type: ADME, organism-based; set-up: dose 200 mg; conditions: in vivo
[6] = Terminal elimination half life in human at 200 mg administered with fat meal every 12 hrs for 8 days measured on day 8; type: ADME, organism-based; conditions: in vivo, read-out: beta t1/2 (converted)
Homo sapiens = assay: Toxicity in human assessed as headache at 200 mg administered every 8 hrs for 8 days; type: organism-based; conditions: in vivo
[7] = Apparent oral clearance in fasted human at 100 mg administered as single dose; type: ADME, organism-based; conditions: in vivo

Cn1c(=O)c(C(=O)NCCO)c(O)c2ncc(Cc3ccc(F)cc3)cc21 [GSK-364735]
concentration at 12 h [1]: 340 ng/mL | AUC at 12 h [2]: 5600 ng·h/mL | AUC at 8 h [3]: 4900 ng·h/mL | Cmax [4]: 2600 ng/mL | Cmax [5]: 1600 ng/mL | half-life [6]: 2.8 h | Activity (Homo sapiens): 13% | CL/F [7]: 317 mL/min

— ChEMBL document CHEMBL1151440, “Safety and pharmacokinetics of GSK364735, a human immunodeficiency virus type 1 integrase inhibitor, following single and repeated administration in healthy adult subjects” (Antimicrob Agents Chemother, 2007)
